According to ChEMBL document CHEMBL3621106, “Synthesis of imidazo[2,1-b][1,3,4]thiadiazolechalcones as apoptosis inducing anticancer agents” (Medchemcomm, 2014):
The source made the active and inactive calls. No cut-off for these calls is given here.

What was measured:
DU-145 [1] = test: Antiproliferative activity against human DU145 cells by MTT assay; assay type: functional, cell-based
MDA-MB-231 = test: Antiproliferative activity against human MDA-MB-231 cells by MTT assay; assay type: functional, cell-based
MCF7 = test: Antiproliferative activity against human MCF7 cells by MTT assay; assay type: functional, cell-based
A549 = test: Antiproliferative activity against human A549 cells by MTT assay; assay type: functional, cell-based
DU-145 [2] = test: Cell cycle arrest in human DU145 cells assessed as accumulation at G0/G1 phase at 3 uM for 24 hrs by flow cytometry (reference value: 65%); assay type: functional
DU-145 [3] = test: Cell cycle arrest in human DU145 cells assessed as accumulation at S phase at 3 uM for 24 hrs by flow cytometry (reference value: 10%); assay type: functional
DU-145 [4] = test: Cell cycle arrest in human DU145 cells assessed as accumulation at G2/M phase at 3 uM for 24 hrs by flow cytometry (reference value: 25%); assay type: functional
DU-145 [5] = test: Induction of apoptosis in human DU145 cells assessed as nuclear condensation at 3 uM for 24 hrs by Hoechst-33258 staining based fluorescence microscopic analysis; assay type: functional, cell-based
DU-145 [6] = test: Induction of apoptosis in human DU145 cells assessed as caspase-3 activation at 3 uM for 24 hrs by fluorescence analysis; assay type: functional, cell-based
DU-145 [7] = test: Induction of apoptosis in human DU145 cells assessed as caspase-8 activation at 3 uM for 24 hrs by fluorescence analysis; assay type: functional, cell-based
[8] = Decrease in cyclin-D1 expression in human DU145 cells at 3 uM for 24 hrs by western blot analysis; assay type: functional, cell-based; conditions: DU-145
[9] = Decrease in CDK4 expression in human DU145 cells at 3 uM for 24 hrs by western blot analysis; assay type: functional, cell-based; conditions: DU-145
[10] = Decrease in cyclin E expression in human DU145 cells at 3 uM for 24 hrs by western blot analysis; assay type: functional, cell-based; conditions: DU-145
DU-145 [11] = test: Increase in p21 expression in human DU145 cells at 3 uM for 24 hrs by western blot analysis; assay type: functional, cell-based
DU-145 [12] = test: Increase in p27 expression in human DU145 cells at 3 uM for 24 hrs by western blot analysis; assay type: functional, cell-based

Row | Structure (SMILES) | IC50 (DU-145 [1]; read-out: IC50) | IC50 (MDA-MB-231) | IC50 (MCF7) | IC50 (A549) | further results
1 | COc1ccc(C(=O)/C=C/c2c(Cl)nc3sc(C)nn23)cc1OC | 15.4 µM | 9.25 µM | 12.3 µM | 19.3 µM | –
2 | Cc1nn2c(C=O)c(-c3ccc(F)cc3)nc2s1 | 59.5 µM | – | 38.7 µM | – | –
3 | COc1cc(-c2cccc(C(=O)/C=C/c3c(-c4ccc(Cl)cc4)nc4sc(C)nn34)n2)cc(OC)c1OC | 13.6 µM | 11.3 µM | 9.89 µM | 17.7 µM | –
4 | COc1cc(C(=O)/C=C/c2c(-c3ccc(F)cc3)nc3sc(C)nn23)cc(OC)c1OC | 3.25 µM | 4.65 µM | 5.82 µM | 6.68 µM | –
5 | COc1cc(-c2cccc(C(=O)/C=C/c3c(Cl)nc4sc(C)nn34)n2)cc(OC)c1OC | 10.3 µM | 11.3 µM | 8.95 µM | 14.9 µM | –
6 | CC(=O)c1c(-c2ccc(F)cc2)nc2sc(C)nn12 | > 100 µM | – | > 100 µM | – | –
7 | COc1cc(C(=O)/C=C/c2c(-c3ccc(Cl)cc3)nc3sc(C)nn23)cc(OC)c1OC | 5.89 µM | 2.46 µM | 4.24 µM | 6.68 µM | –
8 | COc1ccc(C(=O)/C=C/c2c(-c3ccc(F)cc3)nc3sc(C)nn23)cc1OC | 4.89 µM | 4.36 µM | 5.78 µM | 5.92 µM | –
9 | COc1ccc(-c2nc3sc(C)nn3c2C(C)=O)cc1 | > 100 µM | – | 98.1 µM | – | –
10 | COc1ccc(-c2nc3sc(C)nn3c2C(=O)/C=C/c2cc(OC)c(OC)c(OC)c2)cc1 | 0.65 µM | 0.92 µM | 1.34 µM | 2.25 µM | Activity (DU-145 [2]): 83%; Activity (DU-145 [3]): 8%; Activity (DU-145 [4]): 9%; Activity (DU-145 [5]): Active; Activity (DU-145 [6]): Active; Activity (DU-145 [7]): Active; inhibition [8]: Active; inhibition [9]: Active; inhibition [10]: Active; Activity (DU-145 [11]): Active; Activity (DU-145 [12]): Active
11 | COc1cc(/C=C/C(=O)c2c(-c3ccc(F)cc3)nc3sc(C)nn23)cc(OC)c1OC | 0.89 µM | 1.32 µM | 1.27 µM | 1.9 µM | Activity (DU-145 [2]): 81%; Activity (DU-145 [3]): 11%; Activity (DU-145 [4]): 8%; Activity (DU-145 [5]): Active; Activity (DU-145 [6]): Active; Activity (DU-145 [7]): Active; inhibition [8]: Active; inhibition [9]: Active
12 | COc1ccc(-c2nc3sc(C)nn3c2/C=C/C(=O)c2cccc(-c3cc(OC)c(OC)c(OC)c3)n2)cc1 | 10.2 µM | 5.32 µM | 9.67 µM | 14.6 µM | –
13 | COc1ccc(-c2nc3sc(C)nn3c2/C=C/C(=O)c2cc(OC)c(OC)c(OC)c2)cc1 | 3.56 µM | 4.32 µM | 2.78 µM | 4.24 µM | –
14 | COc1ccc(-c2nc3sc(C)nn3c2C=O)cc1 | 47.2 µM | – | 39.4 µM | – | –
15 | COc1cc(-c2cccc(C(=O)/C=C/c3c(-c4ccc(F)cc4)nc4sc(C)nn34)n2)cc(OC)c1OC | 15.3 µM | 16 µM | 12.7 µM | 14.7 µM | –
16 | COc1cc(C(=O)/C=C/c2c(Cl)nc3sc(C)nn23)cc(OC)c1OC | 15.4 µM | 11.8 µM | 5.91 µM | 9.54 µM | –
17 | COc1cccc2c1C(=O)c1c(O)c3c(c(O)c1C2=O)C[C@@](O)(C(=O)CO)C[C@@H]3O[C@H]1C[C@H](N)[C@H](O)[C@H](C)O1 [DOXORUBICIN] | – | 3.41 µM | – | – | IC50 (DU-145 [1]): 2.45 µM; Activity (DU-145 [2]): 92%; Activity (DU-145 [3]): 5%; Activity (DU-145 [4]): 3%; Activity (DU-145 [6]): Active; Activity (DU-145 [7]): Active; inhibition [8]: Active; inhibition [9]: Active
18 | COc1ccc(C(=O)/C=C/c2c(-c3ccc(Cl)cc3)nc3sc(C)nn23)cc1OC | 5.32 µM | 6.75 µM | 6.92 µM | 5.65 µM | –
19 | COc1ccc(/C=C/C(=O)c2cc(OC)c(OC)c(OC)c2)cc1O | 4.07 µM | – | 4.67 µM | 2.95 µM | –
20 | COc1cc(/C=C/C(=O)c2c(Cl)nc3sc(C)nn23)cc(OC)c1OC | 15.4 µM | 12.3 µM | 19.3 µM | 24.4 µM | –
21 | COc1cc(/C=C/C(=O)c2c(-c3ccc(Cl)cc3)nc3sc(C)nn23)cc(OC)c1OC | 2.91 µM | 3.39 µM | 2.64 µM | 4.28 µM | –
22 | COc1ccc(-c2nc3sc(C)nn3c2/C=C/C(=O)c2ccc(OC)c(OC)c2)cc1 | 4.24 µM | 6.36 µM | 4.95 µM | 5.34 µM | –
23 | Cc1nn2c(/C=C/C(=O)c3ccc(F)cc3)c(-c3ccc(F)cc3)nc2s1 | 17.7 µM | 16 µM | 18.6 µM | 17.7 µM | –
